In brackets after ≈: the same amount, converted by molar mass. Each block holds one molecule with its values, some of them ahead of it.
Assays:
L1210 cancer cells = assay: Evaluation of antitumor activity (L1210 growth, 4 days, trypan blue); assay type: cell-based; conditions: Mus musculus, 96 h, Table 37, L1210, 1×10^5 cells/ml
Procedure: Cancer cells were grown in an RPMI 1640 culture medium containing 10% of fetal calf serum.
The compound to be tested was dissolved in 99.5% ethanol and was added to the medium so that the final concentration of the ethanol was 0.1% or less. As a control, 0.1% ethanol was used. L1210 cancer cells were inoculated at a concentration of 1×10^5 cells/ml in the medium and were grown for 4 days. The number of live cells was determined by trypan blue staining.

L1210 tumor cells = assay: Measurement of anticancer activity (L1210 growth, 2 days, trypan blue); assay type: cell-based; conditions: Mus musculus, 48 h, Table 25, L1210, 2.5×10^4 cells/ml
Procedure: Tumor cells were grown in an RPMI 1640 medium containing of 10% fetal calf serum.
The compound was dissolved in 99.5% ethanol, adjusted before use so that the final concentration of ethanol was 0.1% or less, and added to the medium.
The control was 0.1% ethanol, and L1210 tumor cells were inoculated in the medium in a concentration of 2.5×10^4 cells/ml and grown for 2 days. The number of surviving cells were measured by trypan blue staining.

[1] = tested on: human osteoblast (KK-3, 18PDL); assay: Determination (2) of bone formation activity (KK-3, 14 days); assay type: cell-based; conditions: Table 39; for ALP: control 0.44 ± 0.12; for Ca: control 106 ± 12; for P: control 61 ± 10
Procedure: (§1) Human osteoblast (KK-3, 18PDL) was cultured in α-MEM containing 10% fetal bovine serum, and when a stable growth was attained, a predetermined concentration of the compound was added in the presence of 2 mM α-glycerophosphoric acid salt, followed by treatment for 14 days. The cell layer was washed with physiological salt solution and the alkali phosphatase activity then measured by absorption at OD415. Then, calcium and phosphorus were extracted with a 2N hydrochloric acid solution and quantitated.

human osteoblasts = conditions: Koshihara et al., Biochemical Society of Japan (Preprints, 1988, p.767); cited from earlier work
[2] = tested on: human osteoblast (SAM-1, 12PDL); assay: Determination (1) of bone formation activity (SAM-1, 25 days); assay type: cell-based; conditions: Table 38; for Ca per DNA: control 0.386 ± 0.245; for ALP per DNA: control 1.148 ± 0.050; for P per DNA: control 1.528 ± 0.316
Procedure: Human osteoblast (SAM-1, 12PDL) was cultured in α-MEM containing 10% fetal bovine serum, and when a stable growth was attained, a predetermined concentration of the compound was added in the presence of 2 mM α-glycerophosphoric acid salt, followed by treatment for 25 days. The cell layer was washed with Hank's solution and the alkali phosphatase activity then measured by absorption at OD410. Next, calcium and phosphorus were extracted with a 5% perchloric acid solution and quantitated, and DNA was extracted with 5% perchloric acid at 90° C., and the weight thereof quantitated. These evaluations were conducted according to the methods of Koshihara et al (Biochemical and Biophysical Research Communication Vol 145, No. 2, 1987, p. 651).

[3] = tested on: human osteoblast (KK-3, 18PDL); assay: Determination (3) of bone formation activity (KK-3, 14 days); assay type: cell-based; conditions: Table 40; for ALP: control 0.72 ± 0.17; for P: control 51 ± 5; for Ca: control 90 ± 8
Procedure: as §1, with “a physioligical” for “physiological”, “Next,” for “Then,”

IC50 (L1210 cancer cells): 1 µg/mL (≈ 2.3 µM)
Structure (SMILES): C[S+]([O-])C1=CC(O)(CCCCOc2ccccc2)/C(=C/C=C/C(O)CCCO)C1=O (stereo not drawn) [drawing 1102, 2-methylsulfinyl-5-[( -- Z)-4,7-dihydroxy-2-heptenylidene]-4-(4-phenoxybutyl)-4-hydroxy-2-cyclopentenone]

IC50 (L1210 cancer cells): 5 µg/mL (≈ 12.7 µM)
Structure (SMILES): CCCCCC(O)C=CC1C=C(SC)C(=O)C1=CCCCCCC(=O)OC (stereo not drawn) [drawing 1097, 2-methylthio-5-(6-methoxycarbonyl-hexylidene)-4-(3-hydroxy-1-octenyl)-2-cyclopentenone]

IC50 (L1210 tumor cells): 0.83 µg/mL (≈ 1.77 µM)
Structure (SMILES): COC(=O)COc1cccc(C=C2C(=O)C(SC)=CC2(O)CCCCOc2ccccc2)c1 (stereo not drawn) [drawing 1060]

IC50 (L1210 tumor cells): 2.3 µg/mL (≈ 4.25 µM)
Structure (SMILES): CCCCC1=C(Sc2nccn2C)C(=O)C(=CC=CC(O)CCCO)C1(O)CCCCOc1ccccc1 (stereo not drawn) [drawing 1063]

IC50 (L1210 cancer cells): 4 µg/mL (≈ 9.74 µM)
Structure (SMILES): CCCCCC(O)C=CC1C=C([S+](C)[O-])C(=O)C1=CCCCCCC(=O)OC (stereo not drawn) [2-methylsulfinyl-5-(6-methoxycarbonyl-hexylidene)-4-(3-hydroxy-1-octenyl)-2-cyclopentenone]

IC50 (L1210 cancer cells): 3.5 µg/mL (≈ 8.74 µM)
Structure (SMILES): CSC1=CC(=CCCCOc2ccccc2)/C(=C/C=C/C(O)CCCO)C1=O (stereo not drawn) [drawing 1103, 2-methylthio-5-[( -- Z)-4,7-dihydroxy-2-eptenylidene]-4-(4-phenoxybutylidene)-2-cyclopentenone]

Structure (SMILES): CSC1=CC(O)(CCCCOc2ccccc2)/C(=C\C=C\C(O)CCCO)C1=O (stereo not drawn) [2-methylthio-5-[( -- E)-4,7-dihydroxy-2-heptenylidene]-4-(4-phenoxybutyl)-4-hydroxy-2-cyclopentenone]
ALP ([1]; 10^-6 M): 0.97 OD 415 nm/dish
Ca ([1]; 10^-6 M): 168 μg/dish
ALP ([1]; 10^-7 M): 0.56 ± 0.08 OD 415 nm/dish
P ([1]; 10^-7 M): 64 ± 3 μg/dish
Ca ([1]; 10^-7 M): 114 ± 4 μg/dish
ALP ([1]; 10^-8 M): 0.24 ± 0.02 OD 415 nm/dish
P ([1]; 10^-8 M): 47 ± 2 μg/dish
Ca ([1]; 10^-8 M): 87 ± 6 μg/dish

IC50 (L1210 tumor cells): 0.1 µg/mL (≈ 0.37 µM)
Structure (SMILES): CSC1=CC(O)C(=CC=CC(O)CCCO)C1=O (stereo not drawn) [drawing 1064]

Structure (SMILES): CCCCC[C@H](O)/C=C/[C@H]1C(=O)C[C@H](O)[C@@H]1C/C=C\CCCC(=O)O [prostaglandin D2]
calcification by human osteoblasts (human osteoblasts): accelerated

IC50 (L1210 tumor cells): 0.02 µg/mL (≈ 0.0344 µM)
Structure (SMILES): CCOc1ccc2nc(SC3=CC(O)(CCCCOc4ccccc4)C(=CC=CC(O)CCCO)C3=O)sc2c1 (stereo not drawn) [drawing 1061]

IC50 (L1210 tumor cells): 1.9 µg/mL (≈ 4.72 µM)
Structure (SMILES): CSC1=CC(CCCCOc2ccccc2)C(=CC=CC(O)CCCO)C1=O (stereo not drawn)

Structure (SMILES): CSC1=CC(O)(CCCCOc2ccccc2)/C(=C/C=C/C(O)CCCO)C1=O (stereo not drawn) [drawing 1106, 2-methylthio-5-[( -- Z)-4,7-dihydroxy-2-heptenylidene]-4-(4-phenoxybutyl)-4-hydroxy-2-cyclopentenone]
ALP ([1]; 10^-6 M): 1.12 OD 415 nm/dish
Ca ([1]; 10^-6 M): 168 μg/dish
ALP ([1]; 10^-7 M): 0.48 ± 0.08 OD 415 nm/dish
P ([1]; 10^-7 M): 63 ± 6 μg/dish
Ca ([1]; 10^-7 M): 111 ± 9 μg/dish
ALP ([1]; 10^-8 M): 0.28 ± 0.06 OD 415 nm/dish
P ([1]; 10^-8 M): 47 ± 6 μg/dish
Ca ([1]; 10^-8 M): 84 ± 10 μg/dish

IC50 (L1210 cancer cells): 1 µg/mL (≈ 2.3 µM)
Structure (SMILES): C[S+]([O-])C1=CC(O)(CCCCOc2ccccc2)/C(=C\C=C\C(O)CCCO)C1=O (stereo not drawn) [2-methylsulfinyl-5-[( -- E)-4,7-dihydroxy-2-heptenylidene]-4-(4-phenoxybutyl)-4-hydroxy-2-cyclopentenone]

IC50 (L1210 cancer cells): 0.1 µg/mL (≈ 0.24 µM)
Structure (SMILES): C[S+]([O-])C1=CC(=CCCCOc2ccccc2)/C(=C/C=C/C(O)CCCO)C1=O (stereo not drawn) [2-methylsulfinyl-5-[( -- Z)-4,7-dihydroxy-2-heptenylidene]-4-(4-phenoxybutylidene)-2-cyclopentenone]

IC50 (L1210 tumor cells): 0.32 µg/mL (≈ 0.637 µM)
Structure (SMILES): Cn1ccnc1SC1=CC(O)(CCCCOc2ccccc2)C(C(O)C=CC(O)CCCO)C1=O (stereo not drawn) [drawing 1066]

IC50 (L1210 cancer cells): 2 µg/mL (≈ 4.44 µM)
Structure (SMILES): CS(=O)(=O)C1=CC(O)(CCCCOc2ccccc2)/C(=C\C=C\C(O)CCCO)C1=O (stereo not drawn) [2-methylsulfonyl-5-[( -- E)-4,7-dihydroxy-2-heptenylidene]-4-(4-phenoxybutyl)-4-hydroxy-2-cyclopentenone]

IC50 (L1210 tumor cells): 0.15 µg/mL (≈ 0.31 µM)
Structure (SMILES): Cn1ccnc1SC1=CC(O)(CCCCOc2ccccc2)C(=CC=CC(O)CCCO)C1=O (stereo not drawn) [drawing 1062]

Structure (SMILES): CSC1=CC(O)(CCCCOc2ccccc2)/C(=C/C=C/C(O)CCCO)C1=O (stereo not drawn) [drawing 1105, 2-methylthio-5-[( -- Z)-4,7-dihydroxy-2-heptenylidene]-4-(4-phenoxybutyl)-4-hydroxy-2-cyclopentenone]
Ca per DNA ([2]; 10^-6 M): 29.410 μg/μg DNA
ALP per DNA ([2]; 10^-6 M): 1.447 OD 410 nm/μg DNA
P per DNA ([2]; 10^-6 M): 5.743 ± 0.630 μg/μg DNA
Ca per DNA ([2]; 10^-7 M): 8.847 ± 1.485 μg/μg DNA
ALP per DNA ([2]; 10^-7 M): 0.333 ± 0.039 OD 410 nm/μg DNA
P per DNA ([2]; 10^-7 M): 5.270 ± 0.144 μg/μg DNA

Structure (SMILES): CSC1=CC(=CCCCOc2ccccc2)/C(=C/C=C/C(O)CCCO)C1=O (stereo not drawn) [drawing 1108, 2-methylthio-5-[( -- Z)-4,7-dihydroxy-2-heptenylidene]-4-(4-phenoxybutylidene)-2-cyclopentenone]
ALP ([3]; 10^-6 M): 0.75 ± 0.17 OD 415 nm/dish
P ([3]; 10^-6 M): 57 ± 1 μg/dish
Ca ([3]; 10^-6 M): 105 μg/dish
ALP ([3]; 10^-7 M): 0.69 ± 0.02 OD 415 nm/dish
P ([3]; 10^-7 M): 60 ± 14 μg/dish
Ca ([3]; 10^-7 M): 110 ± 30 μg/dish

Structure (SMILES): CCCCCC(O)C=CC1C=C(SC)C(=O)C1=CCCCCCC(=O)OC (stereo not drawn) [drawing 1111, 2-methylthio-5-(6-methoxy-carbonylhexylidene)-4-(3-hydroxy-1-octenyl)-2-cyclo-pentenone]
ALP ([3]; 10^-6 M): 0.68 ± 0.10 OD 415 nm/dish
P ([3]; 10^-6 M): 43 ± 4 μg/dish
Ca ([3]; 10^-6 M): 79 μg/dish
ALP ([3]; 10^-7 M): 0.73 ± 0.02 OD 415 nm/dish
P ([3]; 10^-7 M): 46 ± 2 μg/dish
Ca ([3]; 10^-7 M): 78 ± 4 μg/dish

IC50 (L1210 tumor cells): 0.78 µg/mL (≈ 1.6 µM)
Structure (SMILES): O=C1C(SC2CCCCC2)=CC(O)(CCCCOc2ccccc2)C1=CC=CC(O)CCCO (stereo not drawn) [drawing 1059]

IC50 (L1210 cancer cells): 1.2 µg/mL (≈ 2.87 µM)
Structure (SMILES): CSC1=CC(O)(CCCCOc2ccccc2)/C(=C/C=C/C(O)CCCO)C1=O (stereo not drawn) [drawing 1101, 2-methylthio-5-[( -- Z)-4,7-dihydroxy-2-eptenylidene]-4-(4-phenoxybutyl)-4-hydroxy-2-cyclopentenone]
